Results: EP0231622B1, “Inhibition of the 5-lipoxygenase pathway” (priority 1985, dated 1987)
Marks after values point to notes of the source that are not given here.

Legend:
[1] = tested on: Polymorphonuclear Leukocytes; assay: Mouse Carrageenan Peritonitis (PMN infiltration); type: in vivo, Balb/c mice; details: for % Change / PMN x 10⁻⁵/ml (mean ± S.D.): Table 1, p.o.
Procedure, shortened: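 Male Balb/c mice dosed orally by gavage (compounds in 0.5% tragacanth) 1 h before i.p. 1.0% carrageenan; NDGA given s.c. Peritoneal lavage with Ca/Mg-free PBS 2 h post-injection; total cells by Coulter counter, differentials from Giemsa-stained slides.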

[2] = tested on: Arachidonic Acid-Induced Inflammation of the Mouse Ear; assay: Arachidonic acid-induced mouse ear inflammation; type: in vivo, Balb/c mice
Excerpt: In the following Examples where mice were used, they were male Balb/c mice (20-28 g), and where rats were used, they were male Lewis rats (180-210 g). All mice and rats were obtained from Charles River Breeding Laboratories, Kingston, N.Y. Within a single experiment, mice and rats were sex and age matched.
The compounds of Formula (IA) were used either as the free base or in the appropriate salt form. Levamisole was used as the hydrochloride salt. The compounds were homogenized in 0.5% tragacanth. Compounds were administered by gavage at the indicated dose in a final volume of 10 ml/kg. Nordihydroguaiaretic acid (NDGA) was solubilized in dimethylacetamide and diluted with olive oil for subcutaneous administration.
Arachidonic acid in acetone (2 mg/20 ul) was applied to the inner surface of the left ear. The thickness of both ears was then measured with a dial micrometer one hour after treatment, and the data were expressed as the change in thickness (10⁻³ cm) between treated and untreated ears.
Test compounds were given orally in 0.5% tragacanth at the times indicated in the text prior to the topical application of arachidonic acid.
Parenteral administration of compound was accomplished by subcutaneous injection of solution as indicated.

5-Lipoxygenase = target: T1, 5-Lipoxygenase (Rattus norvegicus, UniProt P12527); assay: 5-HETE production by RBL-1 high speed supernatant; type: biochemical
T1 construct: The activities of these enzymes in extracts of RBL-1 cells were assayed; host or cells: RBL-1 cells, disrupted by nitrogen cavitation; 10,000 x g or 100,000 x g supernatant
T1 sequence (P12527 1-673): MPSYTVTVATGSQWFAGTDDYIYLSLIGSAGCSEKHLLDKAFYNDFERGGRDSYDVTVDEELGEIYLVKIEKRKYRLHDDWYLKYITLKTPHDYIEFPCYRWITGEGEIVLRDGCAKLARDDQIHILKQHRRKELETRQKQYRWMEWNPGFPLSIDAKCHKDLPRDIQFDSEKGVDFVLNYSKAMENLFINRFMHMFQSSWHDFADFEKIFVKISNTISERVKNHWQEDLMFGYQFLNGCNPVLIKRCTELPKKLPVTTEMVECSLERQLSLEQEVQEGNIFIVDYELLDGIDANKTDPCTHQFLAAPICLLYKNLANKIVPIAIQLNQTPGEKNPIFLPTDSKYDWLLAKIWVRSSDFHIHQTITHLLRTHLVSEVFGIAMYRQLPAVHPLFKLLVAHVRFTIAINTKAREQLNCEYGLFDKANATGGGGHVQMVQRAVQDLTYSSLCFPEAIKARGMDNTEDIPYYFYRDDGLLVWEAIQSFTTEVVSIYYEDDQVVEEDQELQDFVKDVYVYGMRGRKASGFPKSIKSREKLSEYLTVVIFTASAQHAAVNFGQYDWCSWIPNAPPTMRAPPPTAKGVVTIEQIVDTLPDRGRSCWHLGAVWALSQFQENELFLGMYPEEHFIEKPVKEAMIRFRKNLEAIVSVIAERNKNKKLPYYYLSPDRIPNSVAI
Procedure: For in vitro experiments, compounds were dissolved at appropriate concentrations in ethanol or DMSO (dimethylsulfoxide) (final concentration <1.0%) and then diluted to final concentrations using the buffers indicated in the text.
The activities of these enzymes in extracts of RBL-1 cells were assayed using the method of Jakschik and Lee, Nature, 287, 51-52 (1980). RBL-1 cells were obtained from the American Type Culture Collection (#CRL 1378) and were grown at 37°C (5% CO₂ in air) in spinner culture in MEM supplemented with 10% heat inactivated fetal calf serum. Harvested cells were washed with 50 mM sodium phosphate buffer, pH 7.0, containing 1 mM EDTA and 0.1% gelatin, resuspended in fresh buffer (5 x 10⁷ cells/ml) and disrupted by nitrogen cavitation using the Parr bomb at 750 psi for 10 min. The broken cell extract was then centrifuged at 10,000 x g for 20 minutes and the supernatant centrifuged at 100,000 x g for 60 minutes. Aliquots (0.25 mls) of the supernatant were preincubated with or without drugs for 10 min, after which 10 ul CaCl₂ (50 mM) was added and the reaction was initiated with 2.5 ul of 2.5 mM arachidonic acid-1-¹⁴C (final concentration was […]; specific activity 20,000 dpm/nmole). After incubation for 3 min at 37°C, the reaction was terminated by addition of 2 volumes (0.5 ml) ice cold acetone and the sample was allowed to deproteinize on ice for 10 min prior to centrifugation at 1,000 x g for 10 min. The deproteinized supernatant was adjusted to pH 3.5 with 2N formic acid and extracted with 2 volumes of ice cold ethyl acetate. The extracted samples were dried under argon, redissolved in ethyl acetate and applied to Whatman LK5D thin layer chromatography (TLC) plates which were developed using the A-9 solvent system [organic phase of ethyl acetate: 2,2,5-trimethylpentane:acetic acid: water (110:50:20:10)] described by Hamberg and Samuelsson, J. Biol. Chem., 241, 257-263 (1966). Arachidonic acid, 5-HETE, di-HETE and PGD₂ were quantified with a Berthold LB 2832 autoscanner.
The 5-lipoxygenase and LTA₄ synthetase activities were further studied under the following conditions. An additional centrifugation of the RBL-1 supernatant was run at 100,000 x g for 60 min, to remove the particulate cyclooxygenase activity. Sample incubation was done under conditions similar to those described above, i.e., 2 mM CaCl₂ and 25 uM arachidonic acid-1-¹⁴C, however, with an incubation time of 5 min at […]. Under these conditions, only the 5-lipoxygenase pathway metabolites were detectable. The 5-HETE and di-HETEs were formed at a linear rate, and […] amounts of the arachidonic acid-1-¹⁴C substrate were utilized.

Fc1ccc(-c2nc3n(c2-c2ccncc2)CCS3)cc1 [Compound 1, 5-(4-pyridyl)-6-(4-fluorophenyl)-2,3-dihydroimidazo[2,1-b]thiazole]
ED50 ([1]; Mus musculus, Leukocyte, po, intraperitoneal carrageenan in mice, read-out: ED₅₀ (inhibition of PMN infiltration)): 43.9 mg/kg | % Change ([1]; 25 mg/kg): -27^e % | % Change ([1]; 50 mg/kg): -56^c % | PMN x 10⁻⁵/ml (mean ± S.D.) ([1]; 50 mg/kg): 4.84 ± 3.01 x 10⁻⁵/ml | PMN x 10⁻⁵/ml (mean ± S.D.) ([1]; 100 mg/kg, 1 h before i.p. carrageenan, read 2 h later): 2.48 ± 0.98 x 10⁻⁵/ml | % Change ([1]; 100 mg/kg, PMN vs vehicle): -77^b % | ED50 ([2]; Mus musculus, po, 1 hour after 2 mg of arachidonic acid to the ear, read-out: ED₅₀ (inhibition of the edematous response of the ear)): 19.5 mg/kg | % Change ([2]; Table 7, 50 mg/kg, p.o.): -67^b % | Increase in Ear Thickness at 1 Hour (x 10⁻³ cm) ([2]; Table 7, 50 mg/kg, p.o., 15 minutes before arachidonic acid): 10.0 ± 1.5 x 10⁻³ cm | 5-HETE (nM/ml) (5-Lipoxygenase; 1 uM): 8.86 ± 0.31 nM/ml | inhibition at 1 µM (5-Lipoxygenase; 1 uM, read-out: % Control (5-HETE)): 12.7% | 5-HETE (nM/ml) (5-Lipoxygenase; 3.3 uM): 7.63 ± 0.44 nM/ml | inhibition at 3.3 µM (5-Lipoxygenase; 3.3 uM, read-out: % Control (5-HETE)): 24.9% | 5-HETE (nM/ml) (5-Lipoxygenase; 10 uM): 5.57 ± 0.35 nM/ml | inhibition at 10 µM (5-Lipoxygenase; 10 uM, read-out: % Control (5-HETE)): 45.1% | 5-HETE (nM/ml) (5-Lipoxygenase; 33 uM): 3.36 ± 0.07 nM/ml | inhibition at 33 µM (5-Lipoxygenase; 33 uM, read-out: % Control (5-HETE)): 67.9% | 5-HETE (nM/ml) (5-Lipoxygenase; 100 uM): 1.08 ± 0.13 nM/ml | inhibition at 100 µM (5-Lipoxygenase; 100 uM, read-out: % Control (5-HETE)): 89.4%
